Measurements reported in PubChem BioAssay AID180 (DTP/NCI, 2004).
Several values for one entry are separate records, joined by “and”; a condition that tells them apart may be missing. Identical values can stand only once.

Tested on: BDF1 mice, Adenocarcinoma 755 s.c., tumor weight T/C
Assay: NCI In Vivo Anticancer Drug Screen. Data for tumor model Adenocarcinoma 755 (subcutaneous) in B6D2F1 (BDF1) mice
Settings: endpoint: mean tumor weight, higher = larger tumour
Procedure, shortened: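 Transplantable tumor implanted; mice dosed with compound or vehicle; survival or tumor size recorded; ratio of treated to vehicle control reported.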

For `C[C@]12CC[C@H](O)C[C@H]1CC[C@@H]1[C@@H]2CC[C@]2(C)[C@@H](C3=CC(=O)OC3)[C@@H](O)C[C@]12O`, the T/C (dose: 3.0 mg/kg/injection, schedule: Q01DX011 (sc), vehicle: steriod suspending solution) was 91 % of control, the T/C (dose: 25.0 mg/kg/injection, schedule: Q01DX011 (sc), vehicle: steriod suspending solution) was 80 % of control and the T/C (dose: 50.0 mg/kg/injection, schedule: Q01DX011 (sc), vehicle: steriod suspending solution) was 110 % of control.
For `COC(C(=O)C(O)C(C)O)C1Cc2cc3cc(OC4CC(OC(C)=O)C(OC5CC(O)C(OC)C(C)O5)C(C)O4)cc(O)c3c(O)c2C(=O)C1OC1CC(OC2CC(OC3CC(C)(O)C(OC(=O)C(C)C)C(C)O3)C(O)C(C)O2)C(O)C(C)O1` (stereo not given), the T/C (dose: 0.02 mg/kg/injection, schedule: Q01DX011 (ip), vehicle: carboxymethylcellulose (CMC)) was 93 % of control, the T/C (dose: 0.04 mg/kg/injection, schedule: Q01DX011 (ip), vehicle: carboxymethylcellulose (CMC)) was 93 % of control and the T/C (dose: 0.08 mg/kg/injection, schedule: Q01DX011 (ip), vehicle: carboxymethylcellulose (CMC)) was 52 % of control. For the same compound, the T/C (dose: 0.15 mg/kg/injection, schedule: Q01DX011 (ip), vehicle: saline) was 114 % of control, the T/C (dose: 0.16 mg/kg/injection, schedule: Q01DX011 (ip), vehicle: carboxymethylcellulose (CMC)) was 14 % of control and 39 % of control and the T/C (dose: 0.33 mg/kg/injection, schedule: Q01DX011 (ip), vehicle: saline) was 66 % of control. The T/C (dose: 0.66 mg/kg/injection, schedule: Q01DX011 (ip), vehicle: saline) was 54 % of control, the T/C (dose: 1.25 mg/kg/injection, schedule: Q01DX011 (ip), vehicle: saline) was 8 % of control and 11 % of control and the T/C (dose: 2.5 mg/kg/injection, schedule: Q01DX011 (ip), vehicle: saline) was 2 % of control and 3 % of control.
With `Cc1cnc(SCc2ccccc2)[nH]c1=O` the T/C (dose: 15.0 mg/kg/injection, schedule: Q01DX011 (ip), vehicle: methylcellulose (MC)) was 103 % of control, the T/C (dose: 31.0 mg/kg/injection, schedule: Q01DX011 (ip), vehicle: methylcellulose (MC)) was 104 % of control and the T/C (dose: 125.0 mg/kg/injection, schedule: Q01DX011 (ip), vehicle: methylcellulose (MC)) was 92 % of control. The T/C (dose: 250.0 mg/kg/injection, schedule: Q01DX011 (ip), vehicle: methylcellulose (MC)) was 77 % of control.
`Nc1ccc(C(=O)O)c(O)c1` was tested, and the T/C (dose: 37.88 mg/kg/injection, schedule: Q01DX011 (ip), vehicle: carboxymethylcellulose (CMC)) was 56 % of control, the T/C (dose: 43.25 mg/kg/injection, schedule: Q01DX011 (ip), vehicle: carboxymethylcellulose (CMC)) was 55 % of control and the T/C (dose: 75.75 mg/kg/injection, schedule: Q01DX011 (ip), vehicle: carboxymethylcellulose (CMC)) was 101 % of control. For the same compound, the T/C (dose: 86.5 mg/kg/injection, schedule: Q01DX011 (ip), vehicle: carboxymethylcellulose (CMC)) was 75 % of control, the T/C (dose: 141.17 mg/kg/injection, schedule: Q01DX011 (ip), vehicle: carboxymethylcellulose (CMC)) was 157 % of control and the T/C (dose: 151.5 mg/kg/injection, schedule: Q01DX011 (ip), vehicle: carboxymethylcellulose (CMC)) was 104 % of control. The T/C (dose: 173.0 mg/kg/injection, schedule: Q01DX011 (ip), vehicle: carboxymethylcellulose (CMC)) was 75 % of control, the T/C (dose: 303.0 mg/kg/injection, schedule: Q01DX011 (ip), vehicle: carboxymethylcellulose (CMC)) was 71 % of control and the T/C (dose: 346.0 mg/kg/injection, schedule: Q01DX011 (ip), vehicle: carboxymethylcellulose (CMC)) was 82 % of control.
With `CC(C)Cn1cnc2c(SCc3ccc(Br)cc3)nc(N)nc21` the T/C (dose: 50.0 mg/kg/injection, schedule: Q01DX011 (ip), vehicle: methylcellulose (MC)) was 40 % of control, the T/C (dose: 150.0 mg/kg/injection, schedule: Q01DX011 (ip), vehicle: methylcellulose (MC)) was 4 % of control and the T/C (dose: 200.0 mg/kg/injection, schedule: Q01DX011 (ip), vehicle: methylcellulose (MC)) was 1 % of control. For the same compound, the T/C (dose: 400.0 mg/kg/injection, schedule: Q01DX011 (ip), vehicle: methylcellulose (MC)) was 2 % of control.
For `CCCSc1ncnc2nc[nH]c12`, the T/C (dose: 0.12 mg/kg/injection, schedule: Q#A X022 (ip), vehicle: alcohol) was 73 % of control, the T/C (dose: 0.25 mg/kg/injection, schedule: Q#A X022 (ip), vehicle: alcohol) was 46 % of control and the T/C (dose: 0.5 mg/kg/injection, schedule: Q01DX011 (ip), vehicle: alcohol) was 80 % of control. For the same compound, the T/C (dose: 1.0 mg/kg/injection, schedule: Q01DX006 (iv), vehicle: alcohol) was 111 % of control, the T/C (dose: 1.0 mg/kg/injection, schedule: Q01DX011 (im), vehicle: alcohol) was 82 % of control and the T/C (dose: 1.0 mg/kg/injection, schedule: Q01DX011 (ip), vehicle: alcohol) was 55 % of control. The T/C (dose: 1.0 mg/kg/injection, schedule: Q01DX011 (oral), vehicle: alcohol) was 44 % of control, the T/C (dose: 1.0 mg/kg/injection, schedule: Q01DX011 (sc), vehicle: alcohol) was 98 % of control and the T/C (dose: 1.0 mg/kg/injection, schedule: Q03DX004 (ip), vehicle: alcohol) was 56 % of control. For the same compound, the T/C (dose: 2.5 mg/kg/injection, schedule: Q01DX011 (ip), vehicle: alcohol) was 24 % of control, the T/C (dose: 2.5 mg/kg/injection, schedule: Q#A X022 (ip), vehicle: alcohol) was 7 % of control and the T/C (dose: 3.0 mg/kg/injection, schedule: Q01DX011 (oral), vehicle: alcohol) was 15 % of control. The T/C (dose: 3.0 mg/kg/injection, schedule: Q03DX004 (ip), vehicle: alcohol) was 85 % of control, the T/C (dose: 3.0 mg/kg/injection, schedule: Q07DX002 (ip), vehicle: alcohol) was 53 % of control and the T/C (dose: 5.0 mg/kg/injection, schedule: Q01DX006 (iv), vehicle: alcohol) was 16 % of control. For the same compound, the T/C (dose: 5.0 mg/kg/injection, schedule: Q01DX011 (im), vehicle: alcohol) was 9 % of control, the T/C (dose: 5.0 mg/kg/injection, schedule: Q01DX011 (ip), vehicle: alcohol) was 3 % of control and the T/C (dose: 5.0 mg/kg/injection, schedule: Q01DX011 (sc), vehicle: alcohol) was 5 % of control. For the same compound, the T/C (dose: 5.0 mg/kg/injection, schedule: Q#A X022 (ip), vehicle: alcohol) was 3 % of control, the T/C (dose: 6.0 mg/kg/injection, schedule: Q01DX011 (oral), vehicle: alcohol) was 4 % of control and the T/C (dose: 6.0 mg/kg/injection, schedule: Q03DX004 (ip), vehicle: alcohol) was 74 % of control. For the same compound, the T/C (dose: 6.0 mg/kg/injection, schedule: Q07DX002 (ip), vehicle: alcohol) was 20 % of control, the T/C (dose: 10.0 mg/kg/injection, schedule: Q01DX006 (iv), vehicle: alcohol) was 10 % of control and the T/C (dose: 10.0 mg/kg/injection, schedule: Q01DX011 (ip), vehicle: alcohol) was 4 % of control. The T/C (dose: 10.0 mg/kg/injection, schedule: Q01DX011 (sc), vehicle: alcohol) was 4 % of control, the T/C (dose: 10.0 mg/kg/injection, schedule: Q#A X022 (ip), vehicle: alcohol) was 4 % of control and the T/C (dose: 12.0 mg/kg/injection, schedule: Q01DX001 (ip), vehicle: alcohol) was 62 % of control. For the same compound, the T/C (dose: 12.0 mg/kg/injection, schedule: Q01DX011 (oral), vehicle: alcohol) was 4 % of control, the T/C (dose: 12.0 mg/kg/injection, schedule: Q03DX004 (ip), vehicle: alcohol) was 26 % of control and the T/C (dose: 12.0 mg/kg/injection, schedule: Q07DX002 (ip), vehicle: alcohol) was 36 % of control. For the same compound, the T/C (dose: 20.0 mg/kg/injection, schedule: Q01DX006 (iv), vehicle: alcohol) was 1 % of control, the T/C (dose: 20.0 mg/kg/injection, schedule: Q01DX011 (ip), vehicle: alcohol) was 2 % of control and the T/C (dose: 20.0 mg/kg/injection, schedule: Q01DX011 (sc), vehicle: alcohol) was 6 % of control. For the same compound, the T/C (dose: 25.0 mg/kg/injection, schedule: Q01DX001 (ip), vehicle: alcohol) was 49 % of control, the T/C (dose: 25.0 mg/kg/injection, schedule: Q03DX004 (ip), vehicle: alcohol) was 5 % of control and the T/C (dose: 25.0 mg/kg/injection, schedule: Q07DX002 (ip), vehicle: alcohol) was 12 % of control. For the same compound, the T/C (dose: 30.0 mg/kg/injection, schedule: Q01DX011 (ip), vehicle: alcohol) was 3 % of control, the T/C (dose: 50.0 mg/kg/injection, schedule: Q03DX004 (ip), vehicle: alcohol) was 16 % of control and the T/C (dose: 50.0 mg/kg/injection, schedule: Q07DX002 (ip), vehicle: alcohol) was 16 % of control. For the same compound, the T/C (dose: 100.0 mg/kg/injection, schedule: Q01DX001 (ip), vehicle: alcohol) was 35 % of control and 51 % of control, the T/C (dose: 100.0 mg/kg/injection, schedule: Q03DX004 (ip), vehicle: alcohol) was 3 % of control and the T/C (dose: 100.0 mg/kg/injection, schedule: Q07DX002 (ip), vehicle: alcohol) was 17 % of control. For the same compound, the T/C (dose: 150.0 mg/kg/injection, schedule: Q01DX001 (ip), vehicle: alcohol) was 21 % of control and 34 % of control, the T/C (dose: 150.0 mg/kg/injection, schedule: Q03DX004 (ip), vehicle: alcohol) was 5 % of control and the T/C (dose: 150.0 mg/kg/injection, schedule: Q07DX002 (ip), vehicle: alcohol) was 5 % of control. For the same compound, the T/C (dose: 200.0 mg/kg/injection, schedule: Q07DX002 (ip), vehicle: alcohol) was 5 % of control.
